Results reported in the Biogen ADME set (Fang et al. 2023).
Values after ≈ are worked out from the molar mass of the structure shown.

Details: for aqueous solubility: pH 6.8

intrinsic clearance, human liver microsomes [mL/min/kg] | intrinsic clearance, rat liver microsomes [mL/min/kg] | aqueous solubility [µg/mL] | MDR1-MDCK efflux ratio | fraction unbound, human plasma | fraction unbound, rat plasma | SMILES
7.9 | 12 | 21.1 (≈ 90.9 µM) | – | – | – | N#Cc1cccc(CN2CCOC[C@H](O)C2)c1
62.8 | 653 | – | – | – | – | Cc1nccc(-c2cccc(NCC(=O)NCc3ccccc3)c2)n1
≤ 4.74 | 19.2 | – | 202 | 0.239 | 1 | CCS(=O)(=O)N1CC(CC#N)(n2cc(-c3ncnc4[nH]ccc34)cn2)C1
≤ 4.74 | 83.7 | – | 0.645 | – | – | Cn1c(=O)n(Cc2cccnc2)c(=O)c2ccc(C(F)(F)F)nc21
6.62 | 76.2 | 27.1 (≈ 90.6 µM) | 1.89 | – | – | CCn1nccc1CNc1nnc(-c2ccc(OC)cc2)o1
– | – | 0.37 (≈ 1.06 µM) | 6.4 | – | – | CS(=O)(=O)N1CCc2c(cccc2NC(=O)c2ccc(F)cc2)C1
5.25 | 66.1 | 39 (≈ 107 µM) | 8.39 | – | – | O=C1CN(C(=O)c2cccc(Oc3cccc(C(F)(F)F)c3)c2)CCN1
21.4 | 916 | 26.4 (≈ 109 µM) | 0.561 | – | – | CC1CCN(C(=O)c2n[nH]c3ccccc23)CC1
≤ 4.74 | ≤ 10.7 | – | 29 | – | – | COc1cc2nc(CN3CCC(CO)CC3)[nH]c(=O)c2cc1OC
16.7 | 438 | 43.5 (≈ 109 µM) | 2.23 | – | – | O=C(Nc1ccn(Cc2ccc(O)cc2C(F)(F)F)n1)c1c(F)cccc1F
13.5 | 29 | 59.1 (≈ 260 µM) | 0.607 | – | – | O=C(NCCc1ccccc1)c1cnccn1
144 | 301 | – | 0.474 | – | – | COC(=O)C1=NOC2(CCN(CCC(C)(C)C)CC2)C1
≤ 4.74 | 11.4 | – | 1.44 | – | – | Cc1cc(C(=O)Nc2nnc3n2CCCC3)n(C)n1
– | – | 0.22 (≈ 0.702 µM) | 0.45 | – | – | c1ccc(Cc2ccccc2-c2nnc(-c3cccnc3)o2)cc1
22.1 | 2210 | 54.7 (≈ 272 µM) | 0.562 | – | – | N#Cc1ccccc1N1CCC(N)CC1
≤ 4.74 | 42.6 | – | – | – | – | O=C(NC[C@]1(O)CCN(Cc2cscn2)C[C@H]1O)c1c[nH]cn1
9.92 | 42.6 | – | 10.2 | 0.104 | 0.124 | CC(C)(O)CCn1cc2cc(NC(=O)c3cccc(C(F)(F)F)n3)c(C(C)(C)O)cc2n1
105 | 1400 | 42.8 (≈ 129 µM) | – | – | – | O=C1CCC(=O)N1Cc1nc(C23CC4CC(CC(C4)C2)C3)cs1
≤ 4.74 | 28.4 | 39.2 (≈ 150 µM) | 0.838 | – | – | CC(C)CN1C(=O)C(=O)N(Cc2ccccn2)C1=O
≤ 4.74 | ≤ 10.7 | 37.7 (≈ 142 µM) | 0.916 | – | – | COc1cccc(-c2nc(C(=O)O)cs2)c1OC
≤ 4.74 | ≤ 10.7 | 42.1 (≈ 127 µM) | 1.59 | – | – | O=C(Cc1cccc(I)c1)N1CC(CO)C1
≤ 4.74 | 28.6 | – | 0.75 | – | – | Cc1cc(Br)ccc1CN(C)C(=O)CO
66.2 | 1220 | 58.4 (≈ 168 µM) | 1.07 | – | – | COC(=O)N1CCCN(C(=O)C(=O)Nc2cccc(C(C)C)c2)CC1
112 | 807 | 1.7 (≈ 4.49 µM) | 0.748 | – | – | O=C(CN1CCCN(c2ccc(C(F)(F)F)cn2)CC1)Nc1ccccc1
14.3 | 1220 | 37.5 (≈ 145 µM) | 0.862 | – | – | Cc1cc(C)c2c(N(C)CCC(C)C)ncnc2n1
≤ 4.74 | 349 | 45.8 (≈ 138 µM) | 0.523 | – | – | CN1CCN(c2ccc(NC(=O)c3ccccc3Cl)nc2)CC1
535 | 2050 | 35.5 (≈ 88.1 µM) | 22.7 | – | – | Cc1cccc(OCCCNc2cc(Cn3c(C)nc4ccccc43)nc(N)n2)c1
≤ 4.74 | 151 | 53.3 (≈ 197 µM) | 0.764 | – | – | Cc1ccc([C@@H]2N[C@@H](Cc3ccccc3)C(=O)N2C)o1

intrinsic clearance, human liver microsomes [mL/min/kg] | intrinsic clearance, rat liver microsomes [mL/min/kg] | aqueous solubility [µg/mL] | MDR1-MDCK efflux ratio | fraction unbound, human plasma | fraction unbound, rat plasma | SMILES
54 | 1790 | – | – | – | – | CN(C)c1ccnc(NCc2ccc(F)cc2)n1
– | – | 56.3 (≈ 194 µM) | – | – | – | CCOC(=O)N1CCC(C(=O)Nc2cccc(C)c2)CC1
≤ 4.74 | 180 | 41.2 (≈ 162 µM) | 0.56 | – | – | N#CCCCN1CCN(c2cc(C#N)ccn2)CC1
– | – | 0.95 (≈ 2.85 µM) | – | – | – | O=C(Cc1ccc2c(c1)CCCC2)Nc1ccc(-n2cnnn2)cc1
10.2 | 749 | 5.51 (≈ 15.2 µM) | 0.142 | – | – | Fc1ccccc1-c1noc(-c2ccc(NCCc3cnccn3)nc2)n1
9.07 | 49.8 | 30.2 (≈ 51.9 µM) | – | 0.0501 | 0.0486 | NCCN1CCN(C/C=C/C(=O)N2CCC[C@@H](n3nc(-c4ccc(Oc5ccccc5)cc4)c4c(N)ncnc43)C2)CC1
170 | 2160 | 11.9 (≈ 35.5 µM) | 0.706 | – | – | O=C(NC[C@@H]1CCN(c2ccccc2)C1)N1CCc2ccccc2C1
59.5 | 1030 | 29.2 (≈ 86.4 µM) | 1.23 | – | – | Cc1ccc(C)c(OCCN(C)C(=O)c2ccc3c(c2)nnn3C)c1
≤ 4.74 | 26.4 | 57 (≈ 166 µM) | 0.716 | – | – | O=C(NC1CCN(c2ccc(OC(F)(F)F)cc2)CC1)N1CCC1
≤ 4.74 | 26.2 | 25.6 (≈ 125 µM) | 0.53 | – | – | Nc1ccc(Oc2ccccc2F)nc1
105 | 1740 | – | – | – | – | CN(Cc1nc2ccccc2n1C)c1ccnc(-c2ccccc2)n1
≤ 4.74 | 38.7 | 49.2 (≈ 183 µM) | 0.632 | – | – | CCS(=O)(=O)Cc1ccn(-c2cccc(F)c2)n1
92 | 279 | 59.1 (≈ 136 µM) | 38.2 | – | – | CN(C)CCN(Cc1ccccc1)C(=O)CCC(=O)Nc1ncc(-c2ccccc2)n1C
≤ 4.74 | 1200 | – | 1.29 | – | – | CC1CCC(CNC2(CCO)CCOCC2)CC1 (stereo not drawn)
≤ 4.74 | – | – | 5.01 | 0.621 | – | Cn1c(-c2n[nH]c3c2CCCC3)nnc1N1CCC2(CNC(=O)C2)C1 (stereo not drawn)
36.5 | 651 | 54.5 (≈ 161 µM) | 66.1 | – | – | Cc1ccc2c(CC(=O)N(C)Cc3nnc4n3CCC4)coc2c1C
≤ 4.74 | 15.2 | 34.1 (≈ 154 µM) | 0.738 | – | – | CNC(=O)CN(C)c1cccc(F)c1C#N
– | – | 0.5 (≈ 1.37 µM) | 0.643 | – | – | Nc1nc(-c2ccccc2)c(C(=O)Nc2ccc(Cl)c(Cl)c2)s1
≤ 4.74 | ≤ 10.7 | 61.4 (≈ 274 µM) | – | – | – | Cc1nc(C2CCN(CC(N)=O)CC2)no1
1040 | 2110 | – | – | – | – | Cc1cc(C)nc(SCC(=O)N2c3ccccc3C(C)(c3ccc(Cl)cc3)CC2(C)C)n1 (stereo not drawn)
25.3 | 456 | 12.4 (≈ 38.8 µM) | 2.59 | – | – | Cc1cc2ccccc2n1CC(=O)N1CCc2ccc(O)cc2C1
511 | 1010 | – | 1.45 | – | – | Cc1cncc(CN2CCC(=C3c4ccc(Cl)cc4CCc4cccnc43)CC2)c1
131 | 1850 | – | 0.648 | – | – | CSc1cnc(N2CCCN(c3ncc(SC)cn3)CC2)nc1
311 | 2060 | 67.7 (≈ 195 µM) | 0.891 | – | – | CCc1ccc(S(=O)(=O)NCc2ccnc(N3CCCC3)n2)cc1
≤ 4.74 | 99.9 | 39.9 (≈ 183 µM) | 0.664 | – | – | CNC(=O)Cn1ccc2cc(OC)ccc21
147 | 513 | 4.4 (≈ 9.2 µM) | – | – | – | O=C(CCN1CCN(C(=O)OCc2cc(Cl)cc(Cl)c2)CC1)c1ccc2[nH]c(=O)oc2c1
9.86 | 1090 | 52.1 (≈ 169 µM) | 7.37 | 0.128 | 0.152 | CN1[C@@H]2CC[C@H]1C[C@H](OC(c1ccccc1)c1ccccc1)C2

SMILES | intrinsic clearance, human liver microsomes [mL/min/kg] | intrinsic clearance, rat liver microsomes [mL/min/kg] | aqueous solubility [µg/mL] | MDR1-MDCK efflux ratio | fraction unbound, human plasma | fraction unbound, rat plasma
COCCN(C)c1ccc(CN2CCOC3(CCCC3)C2)cn1 | 38.5 | 633 | – | 0.619 | – | –
